Data published in ChEMBL document CHEMBL5729069, “4,6 dihydropyrrolo [3,4-C] pyrazole-5 (1H)-carbonitrile derivates for treating cancer” (2022).

Molecular target: Ubiquitin carboxyl-terminal hydrolase 7 (Homo sapiens, UniProt Q93009)
Test: Biochemical Assay: Dilution plates were prepared at 21 times the final concentration (2100 μM for a final concentration of 100 μM) in 50% DMSO in a 96-well polypropylene V-bottom plate (Greiner #651201). A typical 8-point dilution series would be 100, 30, 10, 3, 1, 0.3, 0.1, 0.03 μM final. Reactions were performed in duplicate in black 384 well plates (small volume, Greiner 784076) in a final reaction volume of 21 μl. Either 1 μl of 50% DMSO or diluted compound was added to the plate. USP7 was diluted in reaction buffer (20 mM Tris, pH 7.5, 100 mM NaCl, 0.05% Tween 20, 0.5 mg/ml BSA, 5 mM—beta mercaptoethanol) to the equivalent of 0.0025 μl/well and 10 μl of diluted USP7 was added to the compound. Enzyme and compound were incubated for 30 min at room temp. Reactions were initiated by the addition of 50 nM of TAMRA labelled peptide linked to ubiquitin via an iso-peptide bond as fluorescence polarisation substrate. Reactions were read immediately after addition of substrate and following a 2 hr incubation at room temperature. Readings were performed on a Pherastar Plus (BMG Labtech). λ Excitation 540 nm; λ Emission 590 nm.

Ubiquitin carboxyl-terminal hydrolase 7, sequence (Q93009 whole entry): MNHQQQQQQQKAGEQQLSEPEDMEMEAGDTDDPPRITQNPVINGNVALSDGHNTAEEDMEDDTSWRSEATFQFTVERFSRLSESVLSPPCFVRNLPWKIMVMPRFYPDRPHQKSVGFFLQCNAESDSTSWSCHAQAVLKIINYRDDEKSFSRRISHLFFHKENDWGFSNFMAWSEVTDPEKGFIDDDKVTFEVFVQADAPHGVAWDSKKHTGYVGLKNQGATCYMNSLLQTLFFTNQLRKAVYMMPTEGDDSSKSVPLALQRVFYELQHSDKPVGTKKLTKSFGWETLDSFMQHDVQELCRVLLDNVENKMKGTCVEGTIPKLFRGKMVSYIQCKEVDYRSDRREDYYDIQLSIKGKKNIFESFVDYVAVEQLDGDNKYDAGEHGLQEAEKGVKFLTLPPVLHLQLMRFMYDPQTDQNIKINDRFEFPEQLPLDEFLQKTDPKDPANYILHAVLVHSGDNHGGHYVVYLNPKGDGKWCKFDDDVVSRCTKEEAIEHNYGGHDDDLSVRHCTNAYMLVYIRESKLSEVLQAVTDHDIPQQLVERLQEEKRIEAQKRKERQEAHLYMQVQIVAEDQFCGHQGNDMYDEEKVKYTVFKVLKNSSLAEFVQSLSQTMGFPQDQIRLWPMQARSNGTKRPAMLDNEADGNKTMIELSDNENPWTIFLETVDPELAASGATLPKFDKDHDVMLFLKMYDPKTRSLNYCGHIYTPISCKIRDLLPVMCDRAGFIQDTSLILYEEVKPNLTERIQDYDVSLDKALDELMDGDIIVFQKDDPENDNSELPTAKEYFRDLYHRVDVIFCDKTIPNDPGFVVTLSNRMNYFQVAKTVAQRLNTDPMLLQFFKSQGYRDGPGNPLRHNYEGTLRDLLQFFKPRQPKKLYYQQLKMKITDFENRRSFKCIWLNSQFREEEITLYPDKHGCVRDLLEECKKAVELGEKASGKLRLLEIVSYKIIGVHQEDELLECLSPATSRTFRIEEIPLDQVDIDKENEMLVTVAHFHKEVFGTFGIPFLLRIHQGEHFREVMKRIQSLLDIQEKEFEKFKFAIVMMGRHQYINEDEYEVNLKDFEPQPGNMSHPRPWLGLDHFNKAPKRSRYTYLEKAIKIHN

IC50 [µM]	SMILES
< 10	N#CN1Cc2[nH]nc(-c3cccc(N4CCCC4=O)c3)c2C1
< 10	N#CN1Cc2[nH]nc(-c3cccc(N4CCOC4=O)c3)c2C1
